Marks after values point to notes of the source that are not given here.
System: multi-species bacterial consortium
Experiment: dose-challenge efficacy assay against bacterial consortium, spread plate cell enumeration
Assay type: cell-based
Conditions: for effect on cell counts of the consortium (in words) / population size of bacterial consortium, log10 colony counts: Example 1; for effect on cell counts of the consortium (in words): 0.5 mg/l total, 20 minutes exposure, pH 5 to 8; for population size of bacterial consortium, log10 colony counts: 20 minute exposure, total halogen 0.5 mg/l, average of three values; for numbers of surviving cells, Log10 transformations of the plate counts: Example 2, 20-minute contact time, 0.5 mg/l (as Cl2) active, initial approx. 2×10^5 bacteria per milliliter
Description: The efficacies of the individual haloamines and the synergistic combination produced with the apparatus described above were determined using a consortium of microorganisms and a dose-response protocol. Concentrations of monochloramine and dichloramine reported herein are in units of milligrams per liter as measured by Cl2 analysis; the Hach DPD chlorine test (Hach Company, Loveland, Colo.) was used to measure the total available chlorine concentrations and are expressed as milligrams per liter as Cl2. The DPD assay is based on the amount of chlorine in a sample that reacts with N,N-diethyl-p-phenylenediamine oxalate. To determine the amount of monochloramine or dichloramine in a sample, an aliquot of the sample was transferred to a clean container, diluted with deionized water, as appropriate, and assayed according to the Hach DPD chlorine test. The assay measures the total amount of chlorine that can react with the indicator reagent. The reaction is measured by determining the absorbance of light at 530 nm. Therefore, for the purposes of this invention, a quantity of monochloramine or dichloramine presented in units of mg/l signifies that amount of monochloramine or dichloramine that contains the designated amount of milligrams per liter of reactive chlorine. Thus, for example, a sample treated with 1 mg/l monochloramine or dichloramine will contain a total available chlorine concentration of 1 mg/l. Similarly, a sample treated with 0.5 mg/l monochloramine and 0.5-mg/l dichloramine will contain a total available chlorine concentration of 1 mg/l.
The materials were tested against multi-species bacterial consortium (also referred to as an artificial consortium) containing approximately equal numbers of six bacterial strains. Although the test strains are representative of organisms present in paper mill systems; the effect is not limited to these bacteria. Two of the strains were Klebsiella pneumonia (ATCC 13883) and Pseudomonas aeruginosa (ATCC 15442). The other four strains were isolated from papermill systems and have been presumptively identified as Curtobacterium flaccumfaciens, Burkholderia cepacia, Bacillus maroccanus, and Pseudomonas glathei. Each strain was grown on Tryptic Soy Agar overnight at 37° C. Sterile cotton-tipped swabs were used to aseptically transfer cells to a sterile solution of saline. Each cell suspension was prepared to a desired concentration as measured by turbidity before equal volumes of each of the cell suspensions were then combined to prepare the consortium.
A sample of the biocide solution was aseptically collected at the end of line 11 after the apparatus had been operated for approximately 20 minutes and used in an efficacy assay. Samples of the monochloramine solution in reservoir 3 and the dichloramine solution in mixing chamber 16 were also collected to test efficacy of each active. In the assay, the bacterial consortium was prepared as described above and an appropriate quantity of the cell suspension was aseptically transferred to sterile saline with pH adjusted to selected values. The cells were then challenged with the haloamines and synergistic combinations of the haloamines. In each case, the total halogen concentration was 0.5 mg/l (as […]). In this example, in addition to untreated control, the consortium was exposed to the following treatments: (1) 0.5 mg/l of monochloramine; 0.5 mg/l dichloramine; (3) 0.25 mg/l monochloramine plus 0.25 mg/l dichloramine; and (4) 0.4 mg/l monochloramine plus 0.1 mg/l dichloramine. The consortium was exposed to the haloamines for 20 minutes before samples were removed for cell enumeration by the spread plate technique. […] The control counts presented in Table 1 are those obtained after a 20 minute exposure to saline with pH adjusted to the indicated value.
The dose-challenge studies were carried out as previously described using a freshly prepared bacterial consortium. Sterile saline was prepared with pH adjusted to values of 5.0, 6.0, 7.0 and 8.0. […]

Structure (SMILES) | effect on cell counts of the consortium (in words) | population size of bacterial consortium, log10 colony counts (pH 5 saline) [log10 colony counts] | population size of bacterial consortium, log10 colony counts (pH 6 saline) [log10 colony counts] | population size of bacterial consortium, log10 colony counts (pH 7 saline) [log10 colony counts] | population size of bacterial consortium, log10 colony counts (pH 8 saline) [log10 colony counts] | numbers of surviving cells, Log10 transformations of the plate counts (pH 5 saline) [Log10] | numbers of surviving cells, Log10 transformations of the plate counts (pH 6 saline) | numbers of surviving cells, Log10 transformations of the plate counts (pH 7 saline) [Log10] | numbers of surviving cells, Log10 transformations of the plate counts (pH 8 saline) [Log10]
NCl [MCA, monochloramine] | decreased cell counts | 4.93 | 4.94 | 5.06 | 5.36 | 5.03 | 4.84 Log10 | 5.13 | 5.41
ClNCl [DCA, dichloramine] | decreased cell counts | 3.50 | 5.16 | 5.01 | 5.19 | 3.56 | 5.16* Log10 | 5.07 | 5.24
